Measurements as given in patent publication US11103432B2, “Use of 1,3 diglyceride in a topical composition for countering the weakening of the skin barrier” (PIERRE FABRE DERMO-COSMETIQUE, priority 2015, dated 2021).
Values joined by “and” are separate entries in the source; they are usually repeats but may differ in a detail not shown here. Equal entries are not always repeated. Where two headings read alike, the source gives them in different places.

Key:
[1] = ATR-FTIR of lipids extracted from forearm stratum corneum with added diglyceride (vCH2 vibration); assay type: physicochemical; conditions: 40° C., 3 μg of diglyceride for 30 μg of sample; for influence on the organisation of the intercorneocytory lipids (vCH2, FIG. 2): versus extract devoid of diglyceride
Description: In order to evaluate the change in the organisation of the lipid phases of the stratum corneum, the inventors used infrared spectroscopy (ATR-FTIR: Attenuated total reflectance—Fourier transform infrared Spectroscopy) to analyse the variation, under the effect of the temperature, of the fundamental vibration bands of the vCH2 aliphatic chains of these lipids. More particularly, the position of the absorption band, corresponding to the stretching of the CH2, is located around wave number 2848 cm^−1. By way of example, an increase in the temperature of the surface of the skin causes a displacement of this bands to the higher wave numbers.
The study was carried out on lipids extracted from the stratum corneum of the forearm in order to have a model as close as possible to reality. We have used infrared spectroscopy (ATR-FTIR), to examine the variation, in function of temperature, of fundamental vCH2 vibration bands of aliphatic chains.
The tests were carried out in similar experimental conditions using lipids extracts from the forearm wherein a standardized quantity of diglyceride is added (3 μg of diglyceride for 30 μg of sample).
The test of the example 2 was reproduced with 1,2-distearoyl-rac-glycerol (1,2 diglyceride) and compared to the test carried out with glyceryl 1,3-distearate (1,3 diglyceride).

[2] = system: intercorneocytory lipids of the skin; assay: In vivo ATR-FTIR on the inner forearm of healthy volunteers after application of glyceryl 1,3-distearate; set-up: species or system human; conditions: for Δ νCH2, Average / Δ νCH2, single subjects: 40° C., versus control zone
Method: This study was carried out on health volunteers. The collection of infrared data was done through the intermediary of the ATR-FTIR sensor on the inner face of the forearm on a zone of 10 cm^2.
A treated zone (with application in vivo of glyceryl 1,3 distearate) and a control zone (without application of glyceryl 1,3 distearate) were determined.
Two concentrations in glyceryl 1,3-distearate were evaluated (table 2: 0.5 mg/cm^2 and table 3: 0.15 mg/cm^2).
At T0: the skin is first heated to between 30 and 45° C.
Then after application in vivo of glyceryl 1,3-distearate on the treated zone, an evaluation is made of the variation in the wave number associated with the vCH2 vibration comparatively to the reference measurement without product applied (control zone) at different times after T0: T 30 minutes, T 1 h30 minutes and T 4 hours.
Tables 2 and 3: express the variation of the wave number associated with the vCH2 vibration of the aliphatic chains of the intercorneocytory lipids at 40° C. in the presence of glyceryl 1,3-distearate comparatively to the reference measurement without glyceryl 1,3-distearate.

[3] = system: stratum corneum lipids of human skin explants; assay: FTIR measurement of human skin explants with or without pre-treatment (position of CH2 symmetric stretching band)
Method: The skin samples were heated at the rate of 1° C./min, and spectra were collected between 28° C. and 43° C.
Lipids organization—FTIR measurement: After 30 min of pre-treatment, FTIR measurements were performed to evaluate the molecular organization of the lipid matrix in the stratum corneum. The procedure is based on the study of the position of the CH2 symmetric stretching band, around 2850 cm^−1, depending on the temperature: the skin samples were heated at the rate of 1° C./min and spectra were collected between 28° C. and 43° C. with and without pre-treatment. The position of the CH2 symmetric stretching band is characteristic of the lipid organization and can be related to the barrier function.
FTIR measurement of skin explant (position of CH2 symmetric stretching band) depending on the temperature;
FTIR measurements were performed on human skin explants (8 donors) with or without pre-treatment. The skin samples were heated at the rate of 1° C./min, and spectra were collected between 28° C. and 43° C.

[4] = system: Human skin; assay: Benzo[a]pyrene skin penetration study, Franz diffusion cell; assay type: in vitro ADME; conditions: for B(a)P at Surface, percentage of the applied dose (Mean) / B(a)P in Receptor fluid, percentage of the applied dose (Mean) / B(a)P in Skin, percentage of the applied dose (Mean) / B(a)P in Stratum corneum, percentage of the applied dose (Mean): n = 8
Method: (§1) In order to evaluate the impact of 1,3-diglycerides on the organization of stratum corneum lipids and barrier function, in vitro, skin penetration studies of a known pollutant (benzo[a]pyrene (B(a)P) has been developed and performed. On the same donors, FTIR (Fourier transform infrared) measurement and B(a)P skin penetration were assessed to link lipid organization and the “outside-in” skin barrier function modulations, when the skin is heated up to 42° C.
(§2) Secondly, the impact of pre-treatment with 3% and 15% of glyceryl 1,3 distearate formulated in dimethicone on the modification of the SC (stratum corneum) lipid organization and B(a)P skin penetration provoked by the temperature elevation has been evaluated.
(§3) • OECD Guidelines for the testing of chemicals: guideline 428, skin absorption: in vitro method (13 Apr. 2004); • SCCS Guidelines, basic criteria for the in-vitro assessment of dermal absorption of cosmetics ingredients, updated March 2006.
(§4) For the skin delivery study, two temperatures were set. The classical temperature at the surface of the skin for skin delivery studies is 32° C. This temperature corresponds to the temperature at the surface of the skin in vivo. […]
(§5) The skin penetration study was carried out on 8 donors, the same donor was used for all the conditions:
(§6) The study was carried out on 8 donors, the same donor was used for all the conditions. B(a)P recovery should be comprised between 85% and 115% of the applied dose, in accordance with OECD 428 and SCCS guidelines.
(§7) • % of the applied dose at surface, stratum corneum, skin and receptor fluid; • μg/cm^2 of B(a)P at surface, stratum corneum, skin and receptor fluid. Results were presented with 2 decimals for the percentages and the quantities in μg/cm^2. Formula used in this report: • Standard error of the mean: • sem=Sd/√n • Bioavailability:
(§8) Sum of the quantities found in the skin and receptor fluid.
(§9) The inter-group comparison was performed by a paired Student's t-test with Graph Pad Prism software. The statistical analysis can be interpreted if n>5.

[5] = as above; assay type: in vitro ADME, human; conditions: human, without pre-treatment, 24 h, read-out: bioavailability (skin + receptor fluid) of benzo[a]pyrene, % of the dose applied to the skin
Method: as §1, §2, §3, §4, §5, §6, §7, §8, §9

[6] = 0.15 mg/cm^2 (table title), 30 min
[7] = 0.15 mg/cm^2 (table title), 1 h 30
[8] = 0.15 mg/cm^2 (table title), 4 h
[9] = 3% pre-treatment in dimethicone, 32° C., 24 h
[10] = 3% pre-treatment in dimethicone, 42° C., 24 h
[11] = 15% pre-treatment in dimethicone, 32° C., 24 h
[12] = 15% pre-treatment in dimethicone, 42° C., 24 h

CCCCCCCCCCCCCCCCCC(=O)OCC(O)COC(=O)CCCCCCCCCCCCCCCCC [glyceryl 1,3-distearate]
Δ νCH2: variation in the wave number of the νCH2 vibration of the aliphatic chains of the intercorneocytory lipids, with or without diglyceride [1]: -1.43 cm⁻¹
Δ νCH2, Average [2, 6]: -2.02 cm⁻¹
Δ νCH2, single subjects [2, 6]: -1.87 cm⁻¹ and -2.16 cm⁻¹
Δ νCH2, Average [2, 7]: -2.08 cm⁻¹
Δ νCH2, single subjects [2, 7]: -1.91 cm⁻¹ and -2.25 cm⁻¹
Δ νCH2, Average [2, 8]: -1.89 cm⁻¹
Δ νCH2, single subjects [2, 8]: -1.64 cm⁻¹ and -2.15 cm⁻¹
Δ νCH2, Average ([2]; 0.5 mg/cm^2, 30 min): -2.46 cm⁻¹
Δ νCH2, single subjects ([2]; 0.5 mg/cm^2, 30 min): -2.56 cm⁻¹ and -3.02 cm⁻¹ and -2.71 cm⁻¹
Δ νCH2, Average ([2]; 0.5 mg/cm^2, 1 h 30): -2.41 cm⁻¹
Δ νCH2, single subjects ([2]; 0.5 mg/cm^2, 1 h 30): -2.65 cm⁻¹ and -2.62 cm⁻¹ and -2.6 cm⁻¹
Δ νCH2, Average ([2]; 0.5 mg/cm^2, 4 h): -2.17 cm⁻¹
Δ νCH2, single subjects ([2]; 0.5 mg/cm^2, 4 h): -2.6 cm⁻¹ and -2.29 cm⁻¹ and -2.18 cm⁻¹
persistence of the stabilising effect after application ([2]; skin heated between 30 and 45° C.): at least 4 hours
organisation of the intercorneocytory spaces of the skin ([2]; skin heated between 30 and 45° C., normal conditions of use): stabilise the organisation of the intercorneocytory spaces
position of the CH2 symmetric stretching band ([3]; 3% in dimethicone as pre-treatment, 30 min, 43° C., basal 2852.12): 2848.7 cm⁻¹
shift of the CH2 symmetric stretching band induced by the heating of the skin ([3]; 3% pre-treatment, 28° C. to 43° C., 0.81 without pre-treatment): 0.05 cm⁻¹
impact of the heating on the lipid organization ([3]; pre-treatment with 3% or 15%, T tests, p value<0.05): decrease significantly
B(a)P at Surface, percentage of the applied dose (Mean) [4, 9]: 94.66%
B(a)P in Receptor fluid, percentage of the applied dose (Mean) [4, 9]: 0.05%
B(a)P in Skin, percentage of the applied dose (Mean) [4, 9]: 2.09%
B(a)P in Stratum corneum, percentage of the applied dose (Mean) [4, 9]: 0.82%
B(a)P at Surface, percentage of the applied dose (Mean) [4, 10]: 90.39%
B(a)P in Receptor fluid, percentage of the applied dose (Mean) [4, 10]: 0.17%
B(a)P in Skin, percentage of the applied dose (Mean) [4, 10]: 5.18%
B(a)P in Stratum corneum, percentage of the applied dose (Mean) [4, 10]: 0.90%
B(a)P at Surface, percentage of the applied dose (Mean) [4, 11]: 94.99%
B(a)P in Receptor fluid, percentage of the applied dose (Mean) [4, 11]: 0.04%
B(a)P in Skin, percentage of the applied dose (Mean) [4, 11]: 1.87%
B(a)P in Stratum corneum, percentage of the applied dose (Mean) [4, 11]: 0.77%
B(a)P at Surface, percentage of the applied dose (Mean) [4, 12]: 92.68%
B(a)P in Receptor fluid, percentage of the applied dose (Mean) [4, 12]: 0.15%
B(a)P in Skin, percentage of the applied dose (Mean) [4, 12]: 4.40%
B(a)P in Stratum corneum, percentage of the applied dose (Mean) [4, 12]: 0.75%
penetration of benzo[a]pyrene compared to the basal state and the vehicle ([4]; dose of 3% or 15%, skin maintained in an atmosphere at 42° C.): significant decrease

c1ccc2c(c1)cc1ccc3cccc4ccc2c1c34 [B(a)P, benzo[a]pyrene, reference compound]
bioavailability at 24 h ([5]; skin temperature 32° C.): ≤ 2.95%
bioavailability at 24 h ([5]; skin temperature 42° C.): 6.95%
B(a)P concentration in the receptor fluid corresponding to the worst case ([4]; human): 12.51 µg/L
percentage of B(a)P found in the receptor fluid, worst case ([4]; human): 0.13 % of the applied dose
B(a)P recovered at the surface, % of the applied dose ([4]; human, 24 h): up to 94.5%
bioavailability (skin + receptor fluid) of benzo[a]pyrene, % of the dose applied to the skin ([4]; without pre-treatment, skin temperature 32° C., 24 h): 2.95%

CCCCCCCCCCCCCCCCCC(=O)OCC(CO)OC(=O)CCCCCCCCCCCCCCCCC (racemic) [1,2-distearoyl-rac-glycerol]
Δ νCH2: variation in the wave number of the νCH2 vibration of the aliphatic chains of the intercorneocytory lipids, with or without diglyceride [1]: -0.65 cm⁻¹

CCCCCCCCCCCC(=O)OCC(O)COC(=O)CCCCCCCCCCC [1,3-dilauroylglycerol]
influence on the organisation of the intercorneocytory lipids (vCH2, FIG. 2) [1]: no influence

CCCCCCCCCC(=O)OCC(O)COC(=O)CCCCCCCCC [1,3-dicaprin]
influence on the organisation of the intercorneocytory lipids (vCH2, FIG. 2) [1]: no influence
